Data taken from US11439707B2, “Hypocrellin derivative substituted both in a peri-position and in 2-position by amino, preparation method, and application thereof” (priority 2017, dated 2022).

Tests used:
[1] = singlet oxygen efficiency test, reference rose bengal; assay type: physicochemical
[2] = absorption spectrum (maximum absorption wavelength, molar extinction coefficient); assay type: physicochemical

| SMILES | singlet oxygen yield [1] [%] | maximum absorption wavelength [2] [nm] | molar extinction coefficient [2] |
| --- | --- | --- | --- |
| COCCOCCN1C(=O)CN(C(=O)OCCNc2c(NCCOC(=O)N3CC(=O)N(CCOCCOC)C(=O)C3)c3c(=O)cc(OC)c4c5c(OC)cc(=O)c6c(O)c(OC)c7c(c(c2C=C(C)C7C(C)=O)c34)c65)CC1=O (stereo not drawn) [HB-40a-PEG1] | 32 | 624 | 31,500 M^−1cm^−1 |
| COc1c(O)c2c(=O)cc(OC)c3c4c(OC)cc(=O)c5c(NCCOC(=O)N6CC(=O)NC(=O)C6)c(NCCOC(=O)N6CC(=O)NC(=O)C6)c6c(c(c1C(C(C)=O)C(C)=C6)c23)c54 (stereo not drawn) [HB-40a] | 30 | 620 | 31,000 M^−1cm^−1 |
| COCCOCCOCCOCCOCCOCCOCCN1C(=O)CN(C(=O)OCCNc2c(O)c3c(=O)cc(OC)c4c5c(OC)cc(=O)c6c(NCCOC(=O)N7CC(=O)N(CCOCCOCCOCCOCCOCCOCCOC)C(=O)C7)c(OC)c7c(c(c2C=C(C)C7C(C)=O)c34)c65)CC1=O (stereo not drawn) [HB-40b-PEG6] | 34 | 624 | 31,000 M^−1cm^−1 |
| COc1c(NCCOC(=O)N2CC(=O)NC(=O)C2)c2c(=O)cc(OC)c3c4c(OC)cc(=O)c5c(O)c(NCCOC(=O)N6CC(=O)NC(=O)C6)c6c(c(c1C(C(C)=O)C(C)=C6)c23)c54 (stereo not drawn) [HB-40b] | 34 | 624 | 31,500 M^−1cm^−1 |
| COc1c2c3c4c(c(NCCOC(=O)N5CC(=O)NC(=O)C5)c(=O)c5c(NCCOC(=O)N6CC(=O)NC(=O)C6)cc(OC)c(c6c(OC)cc(O)c(c1=O)c63)c54)C=C(C)C2C(C)=O (stereo not drawn) [HB-40c] | 40 | 632 | 34,000 M^−1cm^−1 |
| COCCOCCOCCOCCOCCOCCOCCOCCOCCOCCOCCOCCOCCN1C(=O)CN(C(=O)OCCNc2c3c4c5c(c(OC)c(=O)c6c(NCCOC(=O)N7CC(=O)N(CCOCCOCCOCCOCCOCCOCCOCCOCCOCCOCCOCCOCCOC)C(=O)C7)cc(OC)c(c7c(OC)cc(O)c(c2=O)c74)c65)C(C(C)=O)C(C)=C3)CC1=O (stereo not drawn) [HB-40d-PEG12] | 30 | 628 | 30,500 M^−1cm^−1 |
| COc1c2c3c4c(c(NCCOC(=O)N5CC(=O)NC(=O)C5)c(=O)c5c(O)cc(OC)c(c6c(OC)cc(NCCOC(=O)N7CC(=O)NC(=O)C7)c(c1=O)c63)c54)C=C(C)C2C(C)=O (stereo not drawn) [HB-40d] | 30 | 628 | 31,500 M^−1cm^−1 |
| COc1c(O)c2c(=O)cc(OC)c3c4c(OC)cc(=O)c5c(NCC[N+]67CC[N+](C)(CC6)CC7)c(NCC[N+]67CC[N+](C)(CC6)CC7)c6c(c(c1C(C(C)=O)C(C)=C6)c23)c54 (stereo not drawn) [HB-41a] | 31 | 622 | 32,500 M^−1cm^−1 |
| COc1c(NCC[N+]23CC[N+](C)(CC2)CC3)c2c(=O)cc(OC)c3c4c(OC)cc(=O)c5c(O)c(NCC[N+]67CC[N+](C)(CC6)CC7)c6c(c(c1C(C(C)=O)C(C)=C6)c23)c54 (stereo not drawn) [HB-41b] | 32 | 624 | 31,500 M^−1cm^−1 |
| COc1c2c3c4c(c(NCC[N+]56CC[N+](C)(CC5)CC6)c(=O)c5c(NCC[N+]67CC[N+](C)(CC6)CC7)cc(OC)c(c6c(OC)cc(O)c(c1=O)c63)c54)C=C(C)C2C(C)=O (stereo not drawn) [HB-41c] | 35 | 621 | 33,500 M^−1cm^−1 |
| COc1c2c3c4c(c(NCC[N+]56CC[N+](C)(CC5)CC6)c(=O)c5c(O)cc(OC)c(c6c(OC)cc(NCC[N+]78CC[N+](C)(CC7)CC8)c(c1=O)c63)c54)C=C(C)C2C(C)=O (stereo not drawn) [HB-41d] | 28 | 625 | 30,500 M^−1cm^−1 |
| COc1c(O)c2c(=O)cc(OC)c3c4c(OC)cc(=O)c5c(NCCC(=O)NCCN6CCOCC6)c(NCCC(=O)NCCN6CCOCC6)c6c(c(c1C(C(C)=O)C(C)=C6)c23)c54 (stereo not drawn) [HB-42a] | 33 | 620 | 32,500 M^−1cm^−1 |
| COc1c(O)c2c(=O)cc(OC)c3c4c(OC)cc(=O)c5c(NCCCC(=O)O)c(NCC(=O)O)c6c(c(c1C(C(C)=O)C(C)=C6)c23)c54 (stereo not drawn) [HB-43a] | 28 | 613 | 26,500 M^−1cm^−1 |
| COc1c(NCCCC(=O)O)c2c(=O)cc(OC)c3c4c(OC)cc(=O)c5c(O)c(NCC(=O)O)c6c(c(c1C(C(C)=O)C(C)=C6)c23)c54 (stereo not drawn) [HB-43b] | 25 | 618 | 26,000 M^−1cm^−1 |
| COc1c2c3c4c(c(NCC(=O)O)c(=O)c5c(NCCCC(=O)O)cc(OC)c(c6c(OC)cc(O)c(c1=O)c63)c54)C=C(C)C2C(C)=O (stereo not drawn) [HB-43c] | 30 | 626 | 26,500 M^−1cm^−1 |
| COc1c2c3c4c(c(NCC(=O)O)c(=O)c5c(O)cc(OC)c(c6c(OC)cc(NCCCC(=O)O)c(c1=O)c63)c54)C=C(C)C2C(C)=O (stereo not drawn) [HB-43d] | 24 | 623 | 26,500 M^−1cm^−1 |
| CCNc1c(NC2CCCC2)c2c(=O)cc(OC)c3c4c(OC)cc(=O)c5c(O)c(OC)c6c(c(c1C=C(C)C6C(C)=O)c23)c54 (stereo not drawn) [HB-44a] | 20 | 628 | 21,500 M^−1cm^−1 |

| SMILES | singlet oxygen yield [1] [%] | maximum absorption wavelength [2] [nm] | molar extinction coefficient [2] |
| --- | --- | --- | --- |
| CCNc1c(O)c2c(=O)cc(OC)c3c4c(OC)cc(=O)c5c(NC6CCCC6)c(OC)c6c(c(c1C=C(C)C6C(C)=O)c23)c54 (stereo not drawn) [HB-44b] | 18 | 621 | 21,000 M^−1cm^−1 |
| CCNc1c2c3c4c(c(OC)c(=O)c5c(O)cc(OC)c(c6c(OC)cc(NC7CCCC7)c(c1=O)c63)c54)C(C(C)=O)C(C)=C2 (stereo not drawn) [HB-44c] | 20 | 624 | 21,000 M^−1cm^−1 |
| CCNc1c2c3c4c(c(OC)c(=O)c5c(NC6CCCC6)cc(OC)c(c6c(OC)cc(O)c(c1=O)c63)c54)C(C(C)=O)C(C)=C2 (stereo not drawn) [HB-44d] | 21 | 622 | 21,500 M^−1cm^−1 |
| COCCOCCNc1c(NCCCC(=O)O)c2c3c4c(c(OC)c(O)c5c(=O)cc(OC)c(c6c(OC)cc(=O)c1c63)c54)C(C(C)=O)C(C)=C2 (stereo not drawn) [HB-47a-PEG1] | 30 | 622 | 30,500 M^−1cm^−1 |
| COCCOCCC(=O)OCCOCCNc1c(NCCCC(=O)O)c2c(=O)cc(OC)c3c4c(OC)cc(=O)c5c(O)c(OC)c6c(c(c1C=C(C)C6C(C)=O)c23)c54 (stereo not drawn) [HB-48a-PEG1] | 32 | 628 | 31,500 M^−1cm^−1 |
| CCNc1c(NC2CCCC2)c2c(=O)c(SCCO)c(OC)c3c4c(OC)cc(=O)c5c(O)c(OC)c6c(c(c1C=C(C)C6C(C)=O)c23)c54 (stereo not drawn) [HB-S-44a] | 20 | 628 | 21,500 M^−1cm^−1 |
| CCNc1c(O)c2c(=O)c(SCCO)c(OC)c3c4c(OC)cc(=O)c5c(NC6CCCC6)c(OC)c6c(c(c1C=C(C)C6C(C)=O)c23)c54 (stereo not drawn) [HB-S-44b] | 18 | 622 | 21,000 M^−1cm^−1 |
| CCNc1c2c3c4c(c(OC)c(=O)c5c(O)cc(OC)c(c6c(OC)c(SCCO)c(NC7CCCC7)c(c1=O)c36)c54)C(C(C)=O)C(C)=C2 (stereo not drawn) [HB-S-44c] | 20 | 628 | 21,000 M^−1cm^−1 |
| CCNc1c2c3c4c(c(OC)c(=O)c5c(NC6CCCC6)cc(OC)c(c6c(OC)c(SCCO)c(O)c(c1=O)c36)c54)C(C(C)=O)C(C)=C2 (stereo not drawn) [HB-S-44d] | 21 | 622 | 21,500 M^−1cm^−1 |
| COCCOCCC(=O)OCCOCCNc1c(NCCOCCOC(=O)CCOCCOC)c2c(=O)cc(OC)c3c4c(OC)cc(=O)c5c(O)c(OC)c6c(c(c1C=C(C)C6)c23)c54 [HC-1a-PEG1] | 32 | 622 | 30,500 M^−1cm^−1 |
| COc1c(O)c2c(=O)cc(OC)c3c4c(OC)cc(=O)c5c(NCCOCCO)c(NCCOCCO)c6c(c(c1CC(C)=C6)c23)c54 [HC-1a] | 36 | 628 | 28,000 M^−1cm^−1 |
| COCCOCCOCCOCCOCCOCCOCCC(=O)OCCOCCNc1c(O)c2c(=O)cc(OC)c3c4c(OC)cc(=O)c5c(NCCOCCOC(=O)CCOCCOCCOCCOCCOCCOCCOC)c(OC)c6c(c(c1C=C(C)C6)c23)c54 [HC-1b-PEG6] | 30 | 624 | 30,000 M^−1cm^−1 |
| COc1c(NCCOCCO)c2c(=O)cc(OC)c3c4c(OC)cc(=O)c5c(O)c(NCCOCCO)c6c(c(c1CC(C)=C6)c23)c54 [HC-1b] | 33 | 624 | 27,000 M^−1cm^−1 |
| COCCOCCC(=O)OCCOCCNc1c2c3c4c(c(OC)c(=O)c5c(O)cc(OC)c(c6c(OC)cc(NCCOCCOC(=O)CCOCCOC)c(c1=O)c63)c54)CC(C)=C2 [HC-1c-PEG1] | 34 | 625 | 32,500 M^−1cm^−1 |
| COCCOCCOCCOCCOCCOCCOCCOCCOCCOCCOCCOCCOCCC(=O)OCCOCCNc1c2c3c4c(c(OC)c(=O)c5c(O)cc(OC)c(c6c(OC)cc(NCCOCCOC(=O)CCOCCOCCOCCOCCOCCOCCOCCOCCOCCOCCOCCOCCOC)c(c1=O)c63)c54)CC(C)=C2 [HC-1c-PEG12] | 35 | 626 | 32,500 M^−1cm^−1 |
| COCCOCCOCCOCCOCCOCCOCCC(=O)OCCOCCNc1c2c3c4c(c(OC)c(=O)c5c(NCCOCCOC(=O)CCOCCOCCOCCOCCOCCOCCOC)cc(OC)c(c6c(OC)cc(O)c(c1=O)c63)c54)CC(C)=C2 [HC-1d-PEG6] | 34 | 622 | 34,500 M^−1cm^−1 |
